These are literature values, as cited in patent publication US8652504B2, “Solid polymer delivery compositions and methods for use thereof” (Medivas, LLC, priority 2005, dated 2014).

The conditions of data set [1]: in vivo.
In a further data set the test system is nerve impulses. To be noted: local anesthetic.

Take `CCCCN1CCCCC1C(=O)Nc1c(C)cccc1C` (centres unmarked) [bupivacaine]: the “morphine requirements and subjective pain scores” value (intra-articular bupivacaine (up to 0.5%) at 4 mL/hr, first 24 hours after surgery) is “neither reduced morphine requirements nor decreased subjective pain scores”. The serum bupivacaine level (one patient receiving 0.5% intra-articular bupivacaine at 4 mL/hr) was 1.2 µg/mL. Moreover, in data set [1], the “serum bupivacaine level at which toxicity has been reported / generally considered toxic” value was 1.0 µg/mL. Also, the duration of action in the data set with nerve impulses is 6 to 8 h.

Turning to `CCN(CC)CC(=O)Nc1c(C)cccc1C` [lidocaine], the duration of action in the data set with nerve impulses was 1 to 2 h.
